These results are taken from ChEMBL document CHEMBL5726776, “3,5-diamino-6-chloro-N-(N-(4-phenylbutyl)carbamimidoyl) pyrazine-2-carboxamide compounds” (2019).

The term IC50 denotes the concentration that inhibits the measured activity by half.

This experiment is described as follows: In Vitro Measure of Sodium Channel Blocking Activity and Reversibility: One assay used to assess mechanism of action and/or potency of the compounds of the present invention involves the determination of lumenal drug inhibition of airway epithelial sodium currents measured under short circuit current (ISC) using airway epithelial monolayers mounted in Using chambers. This assay is described in detail in Hirsh, A. J., Zhang, J., Zamurs, A., et al. Pharmacological properties of N-(3,5-diamino-6-chloropyrazine-2-carbonyl)-N′-4-[4-(2,3-dihydroxypropoxy)phenyl]butyl-guanidine methanesulfonate (552-02), a novel epithelial sodium channel blocker with potential clinical efficacy for CF lung disease. J. Pharmacol. Exp. Ther. 2008; 325(1): 77-88. Cells obtained from freshly excised human, dog, sheep or rodent airways are seeded onto porous 0.4 micron Snapwell™ Inserts (CoStar), cultured at air-liquid interface (ALI) conditions in hormonally defined media, and assayed for sodium transport activity (ISC) while bathed in Krebs Bicarbonate Ringer (KBR) in Using chambers. All test drug additions are to the lumenal bath with half-log dose addition protocols (from 1×10−11 M to 3×10−5 M), and the cumulative change in ISC (inhibition) recorded. All drugs are prepared in dimethyl sulfoxide as stock solutions at a concentration of 1×10−2 M and stored at −20° C. […] After the maximal concentration ([…]) is administered, the lumenal bath is exchanged three times with fresh drug-free KBR solution, and the resultant ISC measured after each wash for approximately 5 minutes in duration. Reversibility is defined as the percent return to the baseline value for sodium current after the third wash. All data from the voltage clamps are collected via a computer interface and analyzed off-line.Dose-effect relationships for all compounds are considered and analyzed by the Prism 3.0 program.
Consider `CCCCCCN(CCCN[C@@H](Cc1ccc2cc(CCCCNC(=N)NC(=O)c3nc(Cl)c(N)nc3N)ccc2c1)C(N)=O)C[C@H](O)[C@@H](O)[C@H](O)[C@H](O)CO`, for which it took 11.3 nM to reach half-maximal inhibition (IC50).

`N=C(NCCCCc1ccc2cc(CC[C@H](NCCCN(C[C@H](O)[C@@H](O)[C@H](O)[C@H](O)CO)C[C@H](O)[C@@H](O)[C@H](O)[C@H](O)CO)C(N)=O)ccc2c1)NC(=O)c1nc(Cl)c(N)nc1N` yielded an IC50 of 12.5 nM.

Regarding `N=C(NCCCCc1ccc2cc(C[C@H](NCCCN(C[C@H](O)[C@@H](O)[C@H](O)[C@H](O)CO)C[C@H](O)[C@@H](O)[C@H](O)[C@H](O)CO)C(N)=O)ccc2c1)NC(=O)c1nc(Cl)c(N)nc1N`, inhibition was half-maximal at 27.4 nM (IC50).

`N=C(NCCCCc1ccc(CC[C@H](NCCCN(C[C@H](O)[C@@H](O)[C@H](O)[C@H](O)CO)C[C@H](O)[C@@H](O)[C@H](O)[C@H](O)CO)C(N)=O)cc1)NC(=O)c1nc(Cl)c(N)nc1N`: the IC50 came out at 10.6 nM.

The compound `N=C(NCCCCc1ccc(CC[C@H](NCCCN(C[C@H](O)[C@@H](O)[C@H](O)[C@H](O)CO)C[C@H](O)[C@@H](O)[C@H](O)[C@H](O)CO)C(N)=O)c2ccccc12)NC(=O)c1nc(Cl)c(N)nc1N` displayed an IC50 of 24 nM.

`CCCCCCN(CCCN[C@@H](Cc1ccc(CCCCNC(=N)NC(=O)c2nc(Cl)c(N)nc2N)c2c1CCCC2)C(N)=O)C[C@H](O)[C@@H](O)[C@H](O)[C@H](O)CO` returned an IC50 of 8.4 nM.

Compound `N=C(NCCCCc1ccc(C[C@H](NCCCN(C[C@H](O)[C@@H](O)[C@H](O)[C@H](O)CO)C[C@H](O)[C@@H](O)[C@H](O)[C@H](O)CO)C(N)=O)c2c1CCCC2)NC(=O)c1nc(Cl)c(N)nc1N` had an IC50 of 5.5 nM.

Turning to `N=C(NCCCCc1ccc(C[C@H](NCCCN(C[C@H](O)[C@@H](O)[C@H](O)[C@H](O)CO)C[C@H](O)[C@@H](O)[C@H](O)[C@H](O)CO)C(N)=O)c2ccccc12)NC(=O)c1nc(Cl)c(N)nc1N`, 40.8 nM corresponded to half-maximal inhibition (IC50).

Compound `CCCCCCN(CCCN[C@@H](CCc1ccc2cc(CCCCNC(=N)NC(=O)c3nc(Cl)c(N)nc3N)ccc2c1)C(N)=O)C[C@H](O)[C@@H](O)[C@H](O)[C@H](O)CO` registered an IC50 of 6 nM.

In the case of `CCCCCCN(CCCN[C@@H](Cc1ccc(CCCCNC(=N)NC(=O)c2nc(Cl)c(N)nc2N)c2ccccc12)C(N)=O)C[C@H](O)[C@@H](O)[C@H](O)[C@H](O)CO`, the IC50 stood at 8.8 nM.

Compound `CCCCCCN(CCCN[C@@H](CCc1ccc(CCCCNC(=N)NC(=O)c2nc(Cl)c(N)nc2N)cc1)C(N)=O)C[C@H](O)[C@@H](O)[C@H](O)[C@H](O)CO` returned a concentration for half-maximal inhibition (IC50) of 2.6 nM.

`N=C(NCCCCc1ccc(CC[C@H](NCCCN(C[C@H](O)[C@@H](O)[C@H](O)[C@H](O)CO)C[C@H](O)[C@@H](O)[C@H](O)[C@H](O)CO)C(N)=O)c2c1CCCC2)NC(=O)c1nc(Cl)c(N)nc1N` registered an IC50 of 7.3 nM.

The compound `N=C(NCCCCc1ccc(C[C@H](NCCCN(C[C@H](O)[C@@H](O)[C@H](O)[C@H](O)CO)C[C@H](O)[C@@H](O)[C@H](O)[C@H](O)CO)C(N)=O)cc1)NC(=O)c1nc(Cl)c(N)nc1N` came in with an IC50 of 35.6 nM.

For `CCCCCCN(CCCN[C@@H](Cc1ccc(CCCCNC(=N)NC(=O)c2nc(Cl)c(N)nc2N)cc1)C(N)=O)C[C@H](O)[C@@H](O)[C@H](O)[C@H](O)CO`, 2.9 nM corresponded to half-maximal inhibition (IC50).

For the compound `CCCCCCN(CCCN[C@@H](CCc1ccc(CCCCNC(=N)NC(=O)c2nc(Cl)c(N)nc2N)c2ccccc12)C(N)=O)C[C@H](O)[C@@H](O)[C@H](O)[C@H](O)CO`, the half-maximal inhibitory concentration (IC50) was 14.3 nM.
